Active and inactive are the calls of the source.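 Rule for the calls: active = IC50 for blocking malaria parasite growth in red cells at or below 10 µM; inactive = the rest.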
What follows are compounds tested on P. falciparum 3D7 in RBCs, 3H-hypoxanthine incorporation, 48 h (assay: antimalarial activity in infected erythrocytes – cell-based, radiolabel, RBCs, powder samples, M18AAP inhibitor project, late-stage follow-up (AID 489011)).

Row | Structure (SMILES) | IC50
1 | Cc1cc(C)n2c(=S)[nH]nc2n1 | > 25 µM (inactive)
2 | Oc1ccc(-c2csc(-c3ccccc3)n2)cc1O | > 25 µM (inactive)
3 | O=C(COc1ccccc1C(=O)N/N=C/c1ccc(O)c(O)c1)N/N=C/c1ccc(O)c(O)c1 | 6 µM
4 | CCC(C)c1ccc(O)c(N)c1 (configuration not stated) | 6 µM
5 | Oc1ccc(CCNc2c3ccccc3nc3ccccc23)cc1O | < 1.6 µM
6 | Cc1cc(C)cc(C(=O)n2cnnc2N)c1 | 7 µM
7 | Br/C(C=Nn1cnnc1)=C\c1ccccc1 | 11 µM (inactive)

From PubChem BioAssay AID489011 (The Scripps Research Institute Molecular Screening Center, 2010)
